In publication PMC6688997 (Nature Communications, 2019):

Tests used:
Assay in all cases: Kinase assay, 1 mM ATP
Type in all cases: biochemical
[1] = target: EPHA1 (Homo sapiens, UniProt P21709)
Experimental: (§1) An off-chip mobility shift assay was performed by Carna Biosciences, Inc. (Kobe, Japan), according to their product instructions. […] The IC50 values were estimated according to the four-parameter logistic model.

[2] = target: ABL (Homo sapiens, UniProt P00519)
Experimental: as §1

[3] = target: T1, CHK2 (Homo sapiens, UniProt O96017)
T1 construct: purchased Carna Biosciences
Experimental: as §1

[4] = target: T2, CDC7/ASK (Homo sapiens, UniProt O00311)
T2 construct: purchased Carna Biosciences
Experimental: as §1

[5] = target: p38β (Homo sapiens, UniProt Q15759)
Experimental: as §1

[6] = target: T3, BRK (Homo sapiens, UniProt Q13882)
T3 construct: purchased Carna Biosciences
Experimental: as §1

[7] = target: p70S6K (Homo sapiens, UniProt P23443)
Experimental: as §1

[8] = target: GSK3β (Homo sapiens, UniProt P49841)
Experimental: as §1

[9] = target: T4, ITK (Homo sapiens, UniProt Q08881)
T4 construct: purchased Carna Biosciences
Experimental: as §1

[10] = target: T5, TEC (Homo sapiens, UniProt P42680)
T5 construct: purchased Carna Biosciences
Experimental: as §1

[11] = target: PDK1 (Homo sapiens, UniProt O15530)
Experimental: as §1

[12] = target: PLK1 (Homo sapiens, UniProt P53350)
Experimental: as §1

[13] = target: T6, IRR (Homo sapiens, UniProt P14616)
T6 construct: purchased Carna Biosciences
Experimental: as §1

[14] = target: HCK (Homo sapiens, UniProt P08631)
Experimental: as §1

[15] = target: SYK (Homo sapiens, UniProt P43405)
Experimental: as §1

[16] = target: TYK2 (Homo sapiens, UniProt P29597)
Experimental: as §1

[17] = target: EPHB1 (Homo sapiens, UniProt P54762)
Experimental: as §1

[18] = target: CDK5/p25 (Homo sapiens, UniProt Q00535)
Experimental: as §1

[19] = target: NEK7 (Homo sapiens, UniProt Q8TDX7)
Experimental: as §1

[20] = target: JNK3 (Homo sapiens, UniProt P53779)
Experimental: as §1

[21] = target: T7, MINK (Homo sapiens, UniProt Q8N4C8)
T7 construct: purchased Carna Biosciences
Experimental: as §1

[22] = target: IRAK4 (Homo sapiens, UniProt Q9NWZ3)
Experimental: as §1

[23] = target: T8, FGFR1 (Homo sapiens, UniProt P11362)
T8 construct: purchased Carna Biosciences
Experimental: as §1

[24] = target: T9, FLT4 (Homo sapiens, UniProt P35916)
T9 construct: purchased Carna Biosciences
Experimental: as §1

[25] = target: T10, Erk5 (Homo sapiens, UniProt Q13164)
T10 construct: purchased Carna Biosciences
Experimental: as §1

[26] = target: T11, AXL (Homo sapiens, UniProt P30530)
T11 construct: purchased Carna Biosciences
Experimental: as §1

[27] = target: CHK1 (Homo sapiens, UniProt O14757)
Experimental: as §1

[28] = target: LCK (Homo sapiens, UniProt P06239)
Experimental: as §1

[29] = target: T12, FRK (Homo sapiens, UniProt P42685)
T12 construct: purchased Carna Biosciences
Experimental: as §1

[30] = target: DYRK1A (Homo sapiens, UniProt Q13627)
Experimental: as §1

[31] = target: T13, JAK1 (Homo sapiens, UniProt P23458)
T13 construct: purchased Carna Biosciences
Experimental: as §1

[32] = target: T14, BMX (Homo sapiens, UniProt P51813)
T14 construct: purchased Carna Biosciences
Experimental: as §1

[33] = target: ARG (Homo sapiens, UniProt P42684)
Experimental: as §1

[34] = target: EPHA5 (Homo sapiens, UniProt P54756)
Experimental: as §1

[35] = target: EPHB4 (Homo sapiens, UniProt P54760)
Experimental: as §1

[36] = target: BRSK1 (Homo sapiens, UniProt Q8TDC3)
Experimental: as §1

[37] = target: JNK1 (Homo sapiens, UniProt P45983)
Experimental: as §1

[38] = target: CDK3/CycE1 (Homo sapiens, UniProt Q00526)
Experimental: as §1

[39] = target: T15, RET(Y791F) (Homo sapiens, UniProt P07949, Y791F)
T15 construct: purchased Carna Biosciences
Experimental: as §1

[40] = target: CDK2/CycA2 (Homo sapiens, UniProt P24941)
Experimental: as §1

[41] = target: AKT1 (Homo sapiens, UniProt P31749)
Experimental: as §1

[42] = target: PIM2 (Homo sapiens, UniProt Q9P1W9)
Experimental: as §1

[43] = target: CK2α1/β (Homo sapiens, UniProt P68400)
Experimental: as §1

Sequence of ABL (P00519 whole entry): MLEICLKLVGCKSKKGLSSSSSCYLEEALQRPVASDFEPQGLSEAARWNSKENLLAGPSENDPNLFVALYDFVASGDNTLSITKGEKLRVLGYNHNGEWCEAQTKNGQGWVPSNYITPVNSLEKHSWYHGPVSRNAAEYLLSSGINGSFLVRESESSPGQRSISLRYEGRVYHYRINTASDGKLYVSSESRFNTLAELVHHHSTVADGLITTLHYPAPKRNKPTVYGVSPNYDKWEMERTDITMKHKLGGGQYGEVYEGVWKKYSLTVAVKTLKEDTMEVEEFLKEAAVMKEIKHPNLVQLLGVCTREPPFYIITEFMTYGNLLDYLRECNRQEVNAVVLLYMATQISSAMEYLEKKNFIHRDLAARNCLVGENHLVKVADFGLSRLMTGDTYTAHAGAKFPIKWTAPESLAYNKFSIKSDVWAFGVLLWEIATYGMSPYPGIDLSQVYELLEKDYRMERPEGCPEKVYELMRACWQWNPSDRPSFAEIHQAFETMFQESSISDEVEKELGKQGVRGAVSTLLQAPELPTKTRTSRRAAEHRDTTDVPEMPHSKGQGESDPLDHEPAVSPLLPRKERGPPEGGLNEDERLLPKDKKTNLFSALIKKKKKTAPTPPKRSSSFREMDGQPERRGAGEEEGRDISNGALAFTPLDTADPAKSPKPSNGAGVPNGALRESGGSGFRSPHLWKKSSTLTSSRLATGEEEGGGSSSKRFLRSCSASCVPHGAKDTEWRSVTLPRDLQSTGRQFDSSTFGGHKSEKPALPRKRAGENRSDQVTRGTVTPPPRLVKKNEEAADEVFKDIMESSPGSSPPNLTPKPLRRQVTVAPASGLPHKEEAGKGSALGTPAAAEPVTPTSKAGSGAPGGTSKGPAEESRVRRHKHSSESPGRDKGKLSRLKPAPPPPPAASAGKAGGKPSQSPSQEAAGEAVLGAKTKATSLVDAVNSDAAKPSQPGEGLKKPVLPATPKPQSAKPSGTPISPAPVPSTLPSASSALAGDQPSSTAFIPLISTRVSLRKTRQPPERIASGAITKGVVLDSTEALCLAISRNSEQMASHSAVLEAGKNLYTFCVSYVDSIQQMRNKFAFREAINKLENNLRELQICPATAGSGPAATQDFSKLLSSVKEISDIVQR
Sequence of LCK (P06239 whole entry): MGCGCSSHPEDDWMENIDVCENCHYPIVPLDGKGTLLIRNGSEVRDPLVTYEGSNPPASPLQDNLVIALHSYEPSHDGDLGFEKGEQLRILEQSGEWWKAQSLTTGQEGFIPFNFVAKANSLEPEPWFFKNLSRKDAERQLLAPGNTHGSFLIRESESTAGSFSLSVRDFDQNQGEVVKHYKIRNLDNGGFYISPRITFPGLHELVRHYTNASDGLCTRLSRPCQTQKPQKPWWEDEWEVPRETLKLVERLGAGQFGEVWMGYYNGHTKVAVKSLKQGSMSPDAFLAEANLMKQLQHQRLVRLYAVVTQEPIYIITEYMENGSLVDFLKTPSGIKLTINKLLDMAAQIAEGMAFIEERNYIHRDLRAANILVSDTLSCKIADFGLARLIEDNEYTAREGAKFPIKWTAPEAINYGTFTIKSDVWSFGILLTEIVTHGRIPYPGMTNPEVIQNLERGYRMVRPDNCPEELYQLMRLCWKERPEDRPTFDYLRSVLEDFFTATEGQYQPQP
Sequence of TYK2 (P29597 whole entry): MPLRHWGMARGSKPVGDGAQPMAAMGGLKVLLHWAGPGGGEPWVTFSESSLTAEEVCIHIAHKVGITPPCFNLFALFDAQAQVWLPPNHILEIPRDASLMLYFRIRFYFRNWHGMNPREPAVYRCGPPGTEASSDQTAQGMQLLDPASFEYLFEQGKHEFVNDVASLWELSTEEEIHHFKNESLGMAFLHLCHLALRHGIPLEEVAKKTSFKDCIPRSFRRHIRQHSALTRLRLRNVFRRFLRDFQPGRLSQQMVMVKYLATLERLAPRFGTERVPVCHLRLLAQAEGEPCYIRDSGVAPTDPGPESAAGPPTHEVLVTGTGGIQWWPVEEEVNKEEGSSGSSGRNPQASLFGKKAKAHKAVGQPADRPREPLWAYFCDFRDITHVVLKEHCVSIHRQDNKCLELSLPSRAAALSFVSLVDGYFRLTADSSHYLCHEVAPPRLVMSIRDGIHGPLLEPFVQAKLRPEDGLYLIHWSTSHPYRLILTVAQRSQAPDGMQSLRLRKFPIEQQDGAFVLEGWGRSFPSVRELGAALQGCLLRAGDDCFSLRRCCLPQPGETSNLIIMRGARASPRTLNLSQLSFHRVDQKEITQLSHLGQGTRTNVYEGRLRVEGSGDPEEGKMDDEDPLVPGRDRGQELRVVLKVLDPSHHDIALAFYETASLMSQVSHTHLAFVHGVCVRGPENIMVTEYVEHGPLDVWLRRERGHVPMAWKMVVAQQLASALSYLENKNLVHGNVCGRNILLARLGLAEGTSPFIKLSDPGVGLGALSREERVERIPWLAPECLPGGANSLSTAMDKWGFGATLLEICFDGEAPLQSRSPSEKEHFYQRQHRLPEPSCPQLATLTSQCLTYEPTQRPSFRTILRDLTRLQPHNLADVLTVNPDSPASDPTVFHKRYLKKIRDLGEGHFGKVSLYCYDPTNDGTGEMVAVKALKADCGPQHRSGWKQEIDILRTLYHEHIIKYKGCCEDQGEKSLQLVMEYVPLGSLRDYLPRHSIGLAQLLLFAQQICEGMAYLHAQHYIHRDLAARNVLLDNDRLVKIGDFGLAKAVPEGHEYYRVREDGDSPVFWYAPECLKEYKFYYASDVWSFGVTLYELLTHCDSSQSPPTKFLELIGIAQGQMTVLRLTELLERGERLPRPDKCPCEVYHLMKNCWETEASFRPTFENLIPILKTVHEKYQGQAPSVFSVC
Sequence of CDK3/CycE1 (Q00526 whole entry): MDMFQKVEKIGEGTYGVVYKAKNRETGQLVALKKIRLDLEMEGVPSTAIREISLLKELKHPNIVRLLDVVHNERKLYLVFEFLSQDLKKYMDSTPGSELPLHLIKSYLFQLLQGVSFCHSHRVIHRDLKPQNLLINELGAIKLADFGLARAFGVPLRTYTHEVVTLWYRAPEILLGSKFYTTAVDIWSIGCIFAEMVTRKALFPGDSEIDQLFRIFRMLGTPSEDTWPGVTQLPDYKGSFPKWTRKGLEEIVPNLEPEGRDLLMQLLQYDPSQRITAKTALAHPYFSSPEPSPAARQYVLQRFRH
Sequence of CDK3/CycE1 (P24864 whole entry partner): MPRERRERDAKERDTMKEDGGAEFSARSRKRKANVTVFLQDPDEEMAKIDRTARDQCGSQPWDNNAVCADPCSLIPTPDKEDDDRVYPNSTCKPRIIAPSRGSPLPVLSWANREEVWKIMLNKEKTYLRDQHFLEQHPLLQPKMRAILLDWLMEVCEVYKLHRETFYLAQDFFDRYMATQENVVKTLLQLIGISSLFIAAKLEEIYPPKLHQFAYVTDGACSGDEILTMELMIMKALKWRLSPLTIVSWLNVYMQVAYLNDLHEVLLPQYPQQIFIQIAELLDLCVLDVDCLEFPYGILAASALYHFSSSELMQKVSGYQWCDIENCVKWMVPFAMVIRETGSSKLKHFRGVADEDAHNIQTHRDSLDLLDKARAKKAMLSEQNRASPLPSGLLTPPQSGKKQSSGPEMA
T2 sequence (O00311 whole entry): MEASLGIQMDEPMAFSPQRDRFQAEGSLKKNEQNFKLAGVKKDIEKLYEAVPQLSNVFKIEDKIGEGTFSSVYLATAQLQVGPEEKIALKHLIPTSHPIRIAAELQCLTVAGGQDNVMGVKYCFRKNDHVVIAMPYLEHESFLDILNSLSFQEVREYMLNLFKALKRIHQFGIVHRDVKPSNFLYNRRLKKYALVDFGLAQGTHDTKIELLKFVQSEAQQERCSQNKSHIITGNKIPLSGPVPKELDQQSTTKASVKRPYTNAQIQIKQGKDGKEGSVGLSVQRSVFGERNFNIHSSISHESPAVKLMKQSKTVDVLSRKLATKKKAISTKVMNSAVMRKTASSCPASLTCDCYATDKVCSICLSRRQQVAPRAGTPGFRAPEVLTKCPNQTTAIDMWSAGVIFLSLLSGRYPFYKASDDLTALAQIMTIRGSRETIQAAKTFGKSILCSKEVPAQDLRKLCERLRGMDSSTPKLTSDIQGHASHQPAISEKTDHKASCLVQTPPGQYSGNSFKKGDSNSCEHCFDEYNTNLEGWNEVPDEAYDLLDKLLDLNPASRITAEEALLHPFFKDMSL
T2 sequence (Q9UBU7 whole entry partner): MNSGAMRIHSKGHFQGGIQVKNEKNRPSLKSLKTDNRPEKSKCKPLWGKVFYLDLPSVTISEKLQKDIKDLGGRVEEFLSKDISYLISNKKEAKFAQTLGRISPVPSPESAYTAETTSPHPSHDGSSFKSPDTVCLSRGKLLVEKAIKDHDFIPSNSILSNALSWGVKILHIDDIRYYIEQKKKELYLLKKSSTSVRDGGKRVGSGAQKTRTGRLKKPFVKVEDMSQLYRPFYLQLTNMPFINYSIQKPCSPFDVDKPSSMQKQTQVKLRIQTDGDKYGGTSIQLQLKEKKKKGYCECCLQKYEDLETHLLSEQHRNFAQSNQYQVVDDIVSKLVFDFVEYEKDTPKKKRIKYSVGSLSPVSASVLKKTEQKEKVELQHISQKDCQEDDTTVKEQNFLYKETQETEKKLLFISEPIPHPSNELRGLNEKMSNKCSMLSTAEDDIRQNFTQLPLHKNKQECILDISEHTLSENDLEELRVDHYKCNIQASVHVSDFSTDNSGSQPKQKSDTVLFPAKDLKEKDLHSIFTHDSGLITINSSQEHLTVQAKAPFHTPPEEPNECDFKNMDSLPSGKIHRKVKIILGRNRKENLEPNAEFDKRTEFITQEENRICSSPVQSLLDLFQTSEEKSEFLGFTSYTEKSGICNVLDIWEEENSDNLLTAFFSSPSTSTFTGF

C[C@@H](N)COc1ccc(-c2cnc3ccc(N[C@H](C)c4cccc(F)c4)nn23)cc1.O=C(O)CCCCC(=O)O [DS-6051b]
inhibition at 0.2 µM [1]: 4.8%
inhibition at 0.2 µM [2]: -1.1%
inhibition at 0.2 µM [3]: 0.3%
inhibition at 0.2 µM [4]: 8.5%
inhibition at 0.2 µM [5]: 0.7%
inhibition at 0.2 µM [6]: 13.4%
inhibition at 0.2 µM [7]: 8.3%
inhibition at 0.2 µM [8]: -23.2%
inhibition at 0.2 µM [9]: -2.5%
inhibition at 0.2 µM [10]: -1.2%
inhibition at 0.2 µM [11]: -4.9%
inhibition at 0.2 µM [12]: -9.2%
inhibition at 0.2 µM [13]: 16.8%
inhibition at 0.2 µM [14]: -6%
inhibition at 0.2 µM [15]: -2.5%
inhibition at 0.2 µM [16]: 8.3%
inhibition at 0.2 µM [17]: -3.5%
inhibition at 0.2 µM [18]: -7.4%
inhibition at 0.2 µM [19]: -2%
inhibition at 0.2 µM [20]: 0.655%
inhibition at 0.2 µM [21]: -2.2%
inhibition at 0.2 µM [22]: -0.4%
inhibition at 0.2 µM [23]: 3.4%
inhibition at 0.2 µM [24]: -4.4%
inhibition at 0.2 µM [25]: 5.2%
inhibition at 0.2 µM [26]: 18%
inhibition at 0.2 µM [27]: -1.2%
inhibition at 0.2 µM [28]: 0.27%
inhibition at 0.2 µM [29]: 8.1%
inhibition at 0.2 µM [30]: -11.4%
inhibition at 0.2 µM [31]: -2%
inhibition at 0.2 µM [32]: 10%
inhibition at 0.2 µM [33]: -0.122%
inhibition at 0.2 µM [34]: -9%
inhibition at 0.2 µM [35]: -6.2%
inhibition at 0.2 µM [36]: -4.8%
inhibition at 0.2 µM [37]: -3.3%
inhibition at 0.2 µM [38]: -1.2%
inhibition at 0.2 µM [39]: -4.3%
inhibition at 0.2 µM [40]: 2.3%
inhibition at 0.2 µM [41]: -1.3%
inhibition at 0.2 µM [42]: -14%
inhibition at 0.2 µM [43]: -12.2%
